Measured values published in US20240168030A1, “DIRECT FLUORESCENT GLYCAN LABELING” (BIO-TECHNE CORPORATION, priority 2019, published 2024).

How the values were obtained:
[1] = biological target: T1, FUT8 (Homo sapiens, UniProt Q9BYC5); test: Fluorescent labeling with fluorophore-conjugated fucose by FUT8; format: biochemical; parameters: key to Tolerance of the fluorophore by FUT8: +++: indicated by number of + signs; ++: indicated by number of + signs; indicated by number of + signs; conditions: for Incorporation of conjugated fucose into antibodies by FUT8: Cantuzumab (FUT8 knockout cells) and NIST mAb 8671, FIG. 10A; for Tolerance of the fluorophore by FUT8: fluorophore-conjugated fucose donor, acceptor core GlcNAc of N-glycans, labeled Cantuzumab in FIG. 10
T1 construct: purchased Bio-Techne (Minneapolis, MN)
T1 sequence (Q9BYC5 1-575): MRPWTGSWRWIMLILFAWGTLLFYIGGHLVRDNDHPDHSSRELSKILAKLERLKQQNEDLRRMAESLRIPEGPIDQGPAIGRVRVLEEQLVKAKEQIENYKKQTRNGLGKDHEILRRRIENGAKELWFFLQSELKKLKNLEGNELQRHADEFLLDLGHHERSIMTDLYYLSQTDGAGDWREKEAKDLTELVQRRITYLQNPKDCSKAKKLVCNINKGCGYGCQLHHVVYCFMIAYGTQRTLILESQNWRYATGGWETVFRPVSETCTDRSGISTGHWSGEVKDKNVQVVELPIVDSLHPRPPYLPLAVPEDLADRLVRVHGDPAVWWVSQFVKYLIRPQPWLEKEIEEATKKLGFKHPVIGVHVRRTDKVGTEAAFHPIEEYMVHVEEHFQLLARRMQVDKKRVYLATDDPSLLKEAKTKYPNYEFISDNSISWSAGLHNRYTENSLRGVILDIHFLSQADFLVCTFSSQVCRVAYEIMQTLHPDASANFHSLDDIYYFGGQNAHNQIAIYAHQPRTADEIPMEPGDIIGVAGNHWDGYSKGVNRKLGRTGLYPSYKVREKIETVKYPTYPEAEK
From the text: (§1) FIG. 10A-FIG. 10D show exemplary results of probing core-6 fucosylation on antibodies by FUT8 incorporation of fluorophores. FIG. 10A. Results of probing substrate glycans of FUT8 (F8) and FUT9 (F9) on Cantuzumab, an anti-Muc1 therapeutic antibody, and NIST reference mAb 8671 using guanosine 5′-diphosphate activated Alexa-Fluor®555 conjugated fucose (GDP-AF555-Fuc) (555), GDP-Cy5-fucose (Cy5), and guanosine 5′-diphosphate activated Alexa-Fluor®488 conjugated fucose (GDP-AF488-Fuc) (488) as donor substrates. Cantuzumab was expressed in FUT8 knockout cells and is devoid of core-6 fucose. Molecular marker (MM) is a prestained Western molecular marker (Bio-Rad Laboratories, Hercules, CA). […] The product of each reaction was separated using SDS-PAGE and imaged with trichloroethanol (TCE) staining (upper panel) and fluorescent imager (lower panel). Labeling on the light chains of the antibodies by Alexa-Fluor®555 is likely the result of non-specific staining due to the use of unpurified GDP-AF555-Fuc that contained free Alexa-Fluor®555. FIG. 10B. […] FIG. 10C. […] FIG. 10D. Schematics of the glycan structures analyzed in FIG. 10B and FIG. 10C.
(§2) For a typical labeling reaction, 1 μg to 5 μg target protein was mixed with 0.2 nmol GDP-f-Fuc and 0.2 μg of a fucosyltransferase in 30 μL buffer of 25 mM Tris pH 7.5, 10 mM MnCl2. The mixture was incubated at 37° C. for 30 minutes. The reaction was then separated by sodium dodecyl sulfate—polyacrylamide gel electrophoresis (SDS-PAGE) and the gel was directly imaged using a fluorescent imager FluorChem M ProteinSimple, Bio-Techne, Minneapolis, MN), followed by imaging with traditional protein imaging methods such as silver staining or trichloroethanol (TCE) staining.
Although FUT8 was known to tolerate azido-fucose (Wu et al. Biochem Biophys Res Commun 473, 524-529 (2016)), it was unknown whether FUT8 could tolerate a fluorophore-conjugated fucose. To test whether FUT8 could tolerate the fluorophore-conjugated fucose and detect its substrate glycans, two substrates were used: Cantuzumab was prepared from a FUT8 knockout cell line, and a reference monoclonal antibody from the National Institute of Standards and Technology (NIST mAb, material 8671, Gaithersburg, MD). The NIST mAb is a humanized IgG1κ monoclonal antibody (Kashi et al. MAbs 10, 922-933 (2018)). IgG antibodies are known to contain an N-glycan site on their heavy chains (Reusch et al. Glycobiology 25, 1325-1334 (2015)).

[2] = biological target: T2, FUT9 (Homo sapiens, UniProt Q9Y231); test: Fluorescent labeling with fluorophore-conjugated fucose by FUT9; format: biochemical; parameters: key to Tolerance of the fluorophore by FUT9: +++: indicated by number of + signs; ++: indicated by number of + signs; indicated by number of + signs; conditions: for Tolerance of the fluorophore by FUT9: fluorophore-conjugated fucose donor, acceptor GlcNAc of lactosamine, FIG. 9
T2 construct: purchased Bio-Techne (Minneapolis, MN)
T2 sequence (Q9Y231 1-359): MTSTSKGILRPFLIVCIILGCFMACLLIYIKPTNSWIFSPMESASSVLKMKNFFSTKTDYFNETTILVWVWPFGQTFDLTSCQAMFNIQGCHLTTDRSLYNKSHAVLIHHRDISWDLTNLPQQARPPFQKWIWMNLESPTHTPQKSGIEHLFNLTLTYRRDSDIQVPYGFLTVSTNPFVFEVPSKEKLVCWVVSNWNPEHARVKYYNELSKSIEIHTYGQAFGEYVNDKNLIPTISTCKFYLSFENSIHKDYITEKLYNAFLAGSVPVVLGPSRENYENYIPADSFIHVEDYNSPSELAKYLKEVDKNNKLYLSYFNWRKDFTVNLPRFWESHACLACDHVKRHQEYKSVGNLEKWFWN
Description: FIG. 9A-FIG. 9B show exemplary results of probing substrate glycans of various fucosyltransferases on fetuin and asialofetuin. FIG. 9A. Probing substrate glycans of fucosyltransferases with guanosine 5′-diphosphate activated Cy5 conjugated fucose (GDP-Cy5-Fuc). […] FUT9 labeled itself (indicated by an arrow in the gel). FIG. 9B. Tolerance of Alexa-Fluor®555 (555), Alexa-Fluor®488 (488), and Cy5 by the indicated fucosyltransferases. All reactions were incubated at 37° C. for 30 minutes and then separated on SDS-PAGE and imaged with silver staining (upper panels) and fluorescent imager (lower panels). M, molecular marker.
as §1
Mouse IgG (R&D Systems, Minneapolis, MN) was digested with Endo S thoroughly and labeled with 0.3 μg of FUT9 and 0.2 nmol of GDP-Cy5-Fuc in 30 μl at 37° C. for the indicated time points. The glycans were also pretreated with B4GalT2 for 5 minutes at 37° C. and then labeled in the same way. The reactions were separated on 15% SDS PAGE. B4GalT2 pretreatment converted all G1′ to G2′. Maximal labeling on G1′ and G2′ were achieved around 30 minutes. […] The heavy chain (HC) and light chain (LC) were visible in the TCE image. M, Western blot marker (Bio-Rad Laboratories, Hercules, CA).
as §2
The four enzymes tolerated the three fluorophores to different levels.

Row | Substance | Incorporation of conjugated fucose into antibodies by FUT8 [1] | Tolerance of the fluorophore by FUT8 [1] | Fluorophore preference of FUT9 ([2]; among Cy5-, AlexaFluor® 488-, and AlexaFluor® 555-conjugated fucoses, FIG. 9B) | Tolerance of the fluorophore by FUT9 [2]
1 | guanosine 5′-diphosphate activated Alexa-Fluor®555 conjugated fucose [GDP-AF555-Fuc] | introduced into Cantuzumab but not to NIST mAb | ++ | preferred | +++
2 | guanosine 5′-diphosphate activated Alexa-Fluor®488 conjugated fucose [GDP-AF488-Fuc] | introduced into Cantuzumab but not to NIST mAb | ++ |  | +++
